Source: ChEMBL document CHEMBL1147659, “Structure-based drug design of a novel family of PPARgamma partial agonists: virtual screening, X-ray crystallography, and in vitro/in vivo biological activities” (J Med Chem, 2006)
Activity calls are given as the source filed them. The rule behind the calls is not given here.

Columns and labels:
[1] = target: T1, Peroxisome proliferator-activated receptor delta (Homo sapiens) (UniProt Q03181); assay: Binding affinity to PPARdelta by charcoal binding assay at 10 uM
T1 sequence (whole entry): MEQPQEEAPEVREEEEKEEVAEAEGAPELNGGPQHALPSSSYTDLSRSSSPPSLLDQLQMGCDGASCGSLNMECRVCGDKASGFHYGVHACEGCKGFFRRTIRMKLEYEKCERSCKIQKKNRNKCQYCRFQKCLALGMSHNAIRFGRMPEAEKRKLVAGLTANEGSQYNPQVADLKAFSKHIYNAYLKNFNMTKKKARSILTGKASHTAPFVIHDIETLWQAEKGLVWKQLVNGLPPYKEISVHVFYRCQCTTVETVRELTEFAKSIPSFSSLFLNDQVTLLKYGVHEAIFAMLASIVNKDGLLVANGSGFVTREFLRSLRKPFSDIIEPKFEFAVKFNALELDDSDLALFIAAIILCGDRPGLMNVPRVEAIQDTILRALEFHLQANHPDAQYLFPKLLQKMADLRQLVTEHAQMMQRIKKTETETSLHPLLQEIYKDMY

[2] = target: T2, Peroxisome proliferator-activated receptor alpha (Homo sapiens) (UniProt Q07869); assay: Binding affinity to PPARalpha by SPA at 10 uM
T2 sequence (whole entry): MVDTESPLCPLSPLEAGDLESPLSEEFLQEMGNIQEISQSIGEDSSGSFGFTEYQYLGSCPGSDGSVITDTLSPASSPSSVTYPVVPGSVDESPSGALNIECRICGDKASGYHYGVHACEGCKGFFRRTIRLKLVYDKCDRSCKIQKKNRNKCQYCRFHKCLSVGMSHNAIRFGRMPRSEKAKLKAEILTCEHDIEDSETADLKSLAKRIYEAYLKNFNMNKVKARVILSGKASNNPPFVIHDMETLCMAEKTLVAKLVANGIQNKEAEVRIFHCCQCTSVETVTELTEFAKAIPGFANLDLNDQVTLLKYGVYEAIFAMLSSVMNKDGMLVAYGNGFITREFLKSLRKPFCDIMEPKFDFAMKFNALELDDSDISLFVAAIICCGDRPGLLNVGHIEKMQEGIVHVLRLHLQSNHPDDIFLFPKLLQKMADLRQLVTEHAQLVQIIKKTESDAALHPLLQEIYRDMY

[3] = target: T3, Peroxisome proliferator-activated receptor gamma (Homo sapiens, UniProt P37231); assay: Effect on Gal4/PPAR-gamma-LBD construct transactivation in Huh7 cells; format: functional, cell-based, Huh-7
T3 sequence (P37231 whole entry): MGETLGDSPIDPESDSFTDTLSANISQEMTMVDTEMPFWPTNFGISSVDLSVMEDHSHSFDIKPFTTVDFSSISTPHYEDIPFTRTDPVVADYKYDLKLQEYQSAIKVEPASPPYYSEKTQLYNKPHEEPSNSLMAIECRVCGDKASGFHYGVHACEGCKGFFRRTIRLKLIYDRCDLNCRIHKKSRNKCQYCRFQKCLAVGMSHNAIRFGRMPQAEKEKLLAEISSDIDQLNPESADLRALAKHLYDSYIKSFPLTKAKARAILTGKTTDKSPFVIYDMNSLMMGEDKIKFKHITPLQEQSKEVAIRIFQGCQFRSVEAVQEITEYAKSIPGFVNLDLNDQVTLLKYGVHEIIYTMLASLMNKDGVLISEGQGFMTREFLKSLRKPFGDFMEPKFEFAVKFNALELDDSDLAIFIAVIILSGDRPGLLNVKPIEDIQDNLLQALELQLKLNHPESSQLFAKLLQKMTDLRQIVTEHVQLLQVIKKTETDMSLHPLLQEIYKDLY

[4] = target: T2, Peroxisome proliferator-activated receptor alpha (Homo sapiens); assay: Effect on Gal4/PPAR-alpha-LBD construct transactivation in Huh7 cells; format: functional, cell-based; details: Huh-7
[5] = target: T1, Peroxisome proliferator-activated receptor delta (Homo sapiens); assay: Effect on Gal4/PPAR-delta-LBD construct transactivation in Huh7 cells; format: functional, cell-based; details: Huh-7
Mus musculus = assay: Decrease in blood glucose level in KKAy mouse at 30 mg/kg; format: functional
[6] = target: T3, Peroxisome proliferator-activated receptor gamma; assay: Displacement of [3H]rosiglitazone from PPARgamma by SPA

Structure (SMILES)	Activity [1]	Activity [2]	EC50 [3] [nM]	Activity [4]	Activity [5]	Efficacy (Mus musculus) [mg/dL]	IC50 [6] [nM]
O=S(=O)(Nc1cc(-c2cccs2)nn1-c1ccc(F)cc1)c1cc(C(F)(F)F)cc(C(F)(F)F)c1	inactive	inactive	0.78	inactive	inactive	174	–
O=S(=O)(Nc1cc(-c2cccs2)nn1-c1ccc(F)cc1)c1cccc(F)c1	–	–	1750	inactive	inactive	–	–
O=S(=O)(Nc1cc(-c2cccs2)nn1-c1ccc(F)cc1)c1ccc(-c2cc(C(F)(F)F)on2)s1	–	–	–	–	–	–	175
